Test results as given in ChEMBL document CHEMBL1148996, “6-Methoxylated and C-glycosyl flavonoids from Centaurea species” (1984).
Converted amounts (≈) assume the structure as drawn.

What was measured:
Format in all cases: functional
Bacillus subtilis = experiment: Antimicrobial activity against Bacillus subtilis ATCC 6633 by paper disk method
Escherichia coli = experiment: Antimicrobial activity against Escherichia coli ATCC 8739 by paper disk method
Pseudomonas aeruginosa = experiment: Antimicrobial activity against Pseudomonas aeruginosa ATCC 1539 by paper disk method
Proteus vulgaris = experiment: Antimicrobial activity against Proteus vulgaris ATCC 8427 by paper disk method
Klebsiella pneumoniae = experiment: Antimicrobial activity against Klebsiella pneumoniae UJ57 by paper disk method

Row | Structure (SMILES) | MBC (Bacillus subtilis) [µg/mL] | MIC (Bacillus subtilis) [µg/mL] | MBC (Escherichia coli) [µg/mL] | MIC (Escherichia coli) [µg/mL] | MBC (Pseudomonas aeruginosa) [µg/mL] | MIC (Pseudomonas aeruginosa) [µg/mL] | MBC (Proteus vulgaris) [µg/mL] | MIC (Proteus vulgaris) [µg/mL] | MBC (Klebsiella pneumoniae) [µg/mL] | MIC (Klebsiella pneumoniae) [µg/mL]
1 | COc1ccc(-c2cc(=O)c3c(O)c(OC)c(OC)cc3o2)cc1O [EUPATORIN] | 188 (≈ 545 µM) | 93.8 (≈ 272 µM) | > 375 | 188 (≈ 545 µM) | – | – | – | – | – | –
2 | COc1ccc(-c2cc(=O)c3c(O)c(OC)c(OC)cc3o2)cc1OC | – | – | 500 (≈ 1400 µM) | 250 (≈ 698 µM) | 250 (≈ 698 µM) | 125 (≈ 349 µM) | – | – | – | –
3 | COc1c(O)cc2oc(-c3ccc(O)cc3)cc(=O)c2c1O [HISPIDULIN] | > 250 | 125 (≈ 416 µM) | – | – | – | – | > 250 | 125 (≈ 416 µM) | – | –
4 | O=c1cc(-c2ccc(O)cc2)oc2cc(O)cc(O)c12 [APIGENIN] | 219 (≈ 810 µM) | 110 (≈ 405 µM) | 438 (≈ 1620 µM) | 110 (≈ 405 µM) | 438 (≈ 1620 µM) | 110 (≈ 405 µM) | 438 (≈ 1620 µM) | 54.8 (≈ 203 µM) | 438 (≈ 1620 µM) | 219 (≈ 810 µM)
5 | COc1cc(-c2cc(=O)c3c(O)c(OC)c(O)cc3o2)ccc1O [JACEOSIDINE] | – | – | 250 (≈ 757 µM) | 125 (≈ 378 µM) | – | – | – | – | – | –
